Series [1] has as its target T1, Human recombinant BAD protein (Homo sapiens, UniProt Q92934).
T1 construct: purchased MyBiosource, USA MBS143012
T1 sequence (Q92934 1-168): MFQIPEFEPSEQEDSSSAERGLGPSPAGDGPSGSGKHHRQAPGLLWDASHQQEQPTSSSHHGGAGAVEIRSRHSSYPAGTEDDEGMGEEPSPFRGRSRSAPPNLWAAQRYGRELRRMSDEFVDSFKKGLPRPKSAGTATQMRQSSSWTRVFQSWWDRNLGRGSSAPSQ
The series can be described thus: Surface plasmon resonance analysis (BIAcore). The class given is binding. The settings on record: SPR. Here is the method: To provide molecular interaction of the most promising candidate, NPB binding affinity to BAD, we performed surface plasmon resonance (SPR) measurements with immobilized BAD subunit using NPB as the analyte. We know that BAD could bind to BAD subunit in vitro. […] The recombinant BAD was immobilized on CM5 sensor chip. To determine the association and dissociation curves, various concentrations of NPB were injected individually onto the surface of a sensor chip coated with BAD. The overlaid sensorgrams shown in FIG. 14 were analyzed collectively.
Molecular interactions were analyzed based on surface plasmon resonance using a BIAcore-2000 system (BIAcore AB, Uppsala, Sweden). Human recombinant BAD protein (Catalog No. MBS143012, MyBiosource, USA) was immobilized on a sensor chip as described by the manufacturer protocol. To examine the interaction of BAD with NPB, various concentrations of NPB (20 to 100 μM) in the running buffer (HBS-EP, pH 7.4, BIAcore AB) were injected onto the surface of the BAD-immobilized sensor chip with a flow rate of 15 μl/min as per the manufacturer's directions. NPB was allowed to interact with BAD subunit for 2 min for association and dissociation, respectively, after which the sensor chip was regenerated by injecting 1 M NaCl for 2 min before the next injection. Using BIA evaluation software 4.1 (BIAcore AB), the kinetic parameters were such as association and dissociation rate constants (ka and kd), dissociation equilibrium constants (Kd) using a 1:1 binding model with mass transfer. Sensograms obtained were overlaid using BIA evaluation software.
(SPR reads the build-up and loss of mass on a sensor chip optically.)

Series [2] relates to MCF7, BT474, Caov-3, Ishikawa, AsPC-1 and DLD-1 cells. The series can be described thus: NPB exposure with or without siRNA-mediated depletion of BAD (western blot, ApoTox-Glo). The note with it: 5 μM NPB. The class given is cell-based, human. As for the experimental part: (A) WB analysis was used to assess the levels of pBAD (Ser99) activity and BAD protein in MCF7, BT474, Caov-3, Ishikawa, AsPC-1, and DLD-1 cells after treatment with 5 μM NPB. Depletion of BAD expression was achieved using transient-transfection of small interfering (si)-RNA directed to the BAD transcript. Soluble whole cell extracts were run on an SDS-PAGE and immunoblotted as described in materials and methods. β-ACTIN was used as input control. Effects of NPB (5 μM) in MCF7, BT474, Caov-3, Ishikawa, AsPC-1, and DLD-1 cells. (B) Cell viability and (C) caspase 3/7 activities were evaluated using the ApoTox-GIo™ Triplex Assay Kit. All assays performed as described in methodology. Statistical significance was assessed by an unpaired two-tailed Student's t-test (P<0.05 was considered as significant) using GraphPad Prism5. The column represents mean of triplicate determinations; bars, ±SD. **P<0.001, *P<0.05. Note RFU, relative fluorescence unit; RLU, relative luminescence unit.
To confirm the functional specificity of NPB directed to the BAD protein, we further examined the effect of NPB exposure after siRNA-mediated depletion of BAD expression in 6 carcinoma cell lines (MCF7, BT474, Caov-3, Ishikawa, AsPC-1 and DLD-1). […] As described above, NPB treatment of the control transfected carcinoma cell lines decreased BAD phosphorylation (Ser99) compared to vehicle-treated cells. Concomitantly, exposure of the same carcinoma cell lines to NPB decreased cell viability and increased caspase 3/7 activity compared to vehicle-exposed cells.
For orientation: Immunoblotting shows a protein as a band on a membrane.

For series [3], the system named is normal hepatocytes (LO2) and immortalized mammary epithelial cells (MCF10A and MCF12A). The series can be described thus: Activity on normal immortalized cells. The class given is cell-based, human. The text has this: (§1) NPB was subsequently evaluated against panel of normal immortalized mammary epithelial cells (MCF10A and MCF12A), normal hepatocytes (LO2), mammary carcinoma (BT549, MDA-MB-231, MCF7, T47D, BT474), endometrial cancer (Ishikawa, Ecc1, RL95-2, AN3), ovarian cancer (SK-OV-3, OVCAR-2, Caov-3, HEY C2, Ovca433), liver cancer (Hep3B, H2P, H2M), colon cancer (HCT116, DLD-1, Caco-2), prostate cancer (PC3, LNCaP, DU145) and pancreatic cancer (AsPC-1, BxPC-3) cells. […] Using a Laplacian-modified Naïve Bayes classifier, NPB is subjected to in silico analysis which anticipates the human target of NPB as BAD protein.
(§2) Effect of NPB (5 μM) on carcinoma cell viability including, mammary, endometrial, ovarian, liver, colon, prostate, and pancreatic carcinoma cell lines. (A) Cell viability (B) caspase 3/7 activities and (C) cytotoxicity were evaluated using ApoTox-GIo™ Triplex Assay Kit as described in methodology. Statistical significance was assessed by an unpaired two-tailed Student's t-test using GraphPad Prism5. The column represents mean of triplicate determinations; bars, ±SD. **P<0.001, *P<0.05. Note: RFU, relative fluorescence unit; RLU, relative luminescence unit, #; non-transformed, immortalized epithelial cells; MB-231, MDA-MB-231. […]

Series [4] relates to carcinoma cell lines (mammary, endometrial, ovarian, liver, colon, prostate, pancreatic). The series can be described thus: ApoTox-Glo Triplex assay (viability, caspase 3/7, cytotoxicity) in carcinoma cell lines. The class given is cell-based, human. The settings on record: all tested cancer cell lines.
Text: as §1, §2

Where [5] appears, read: control transfected carcinoma cell lines, vs vehicle.

Structures are written as SMILES. “Also recorded” adds a separate entry of the source.

Broadly, the Kd is the constant that tells how readily two partners part at equilibrium. As for `O=C(NC1CCCC1)c1cccc(C(c2ccccc2O)N2CCN(c3cccc(Cl)c3Cl)CC2)c1` (stereo not drawn) [NPB, N-cyclopentyl-3-((4-(2,3-dichlorophenyl)piperazin-1-yl)(2-hydroxyphenyl)methyl) benzamide], in series [1] (1:1 binding model with mass transfer, read-out: dissociation equilibrium constants (Kd)), the dissociation constant Kd is 37.1 µM. In series [1] (immobilized BAD, NPB 20 to 100 μM, read-out: association rate constant), the kon is 1400 M⁻¹ s⁻¹. Besides, in series [1] (immobilized BAD, NPB 20 to 100 μM, read-out: dissociation rate constant), the koff was 0.054 s⁻¹. The “cell viability and caspase3/7 activity” value in series [2] (carcinoma cell lines with depleted expression of BAD) is on record as “did not affect”. Further, in series [2] (setting [5]), the “BAD phosphorylation (Ser99)” value is listed as “decreased”, the “caspase 3/7 activity” value is reported as “increased” and the cell viability entry is on record as “decreased”. Also, in series [3], the “activity / cytotoxic effect on normal cells” value is recorded as “no substantial activity; also recorded: did not have cytotoxic effect”. Further, the “apoptosis in cancer cell lines” value in series [4] was “significantly enhanced; also recorded: induce apoptotic cell death”.

(Values after patent publication US11292773B2, “Small molecule inhibitors of BCL-2-associated death promoter (BAD) phosphorylation” (NATIONAL UNIVERSITY OF SINGAPORE, priority 2017, dated 2022).)
